{"source": "patent US6914045B2", "about": "“Glycopeptide antibiotics” (Wyeth Holdings Corporation, priority 2001, dated 2005)", "key": {"Enterococcus sp.": {"tested_on": "Enterococcus sp.", "experiment": "in vitro antibacterial evaluation, MIC by broth dilution", "assay_type": "cell-based", "details": "broth dilution, 18 hours at 35° C.", "summary_of_the_method": "(§1)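 MIC = lowest antibiotic concentration preventing visible growth; inoculum 5×10^5 CFU/mL; drug range 64-0.06 μg/mL; Muller-Hinton II […]; NCCLS M7-A2 guidance.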"}, "Staphylococcus sp.": {"tested_on": "Staphylococcus sp.", "experiment": "in vitro antibacterial evaluation, MIC by broth dilution", "assay_type": "cell-based", "details": "broth dilution, 18 hours at 35° C.", "summary_of_the_method": "as §1"}, "Streptococcus sp.": {"tested_on": "Streptococcus sp.", "experiment": "in vitro antibacterial evaluation, MIC by broth dilution", "assay_type": "cell-based", "details": "broth dilution, 18 hours at 35° C.", "summary_of_the_method": "as §1"}, "Escherichia coli": {"tested_on": "Escherichia coli", "experiment": "in vitro antibacterial evaluation, MIC by broth dilution", "assay_type": "cell-based", "details": "18 hours at 35° C.", "summary_of_the_method": "as §1"}, "[1]": {"tested_on": "Enterococcus faecalis (GC 6189)", "experiment": "acute lethal infection in mice", "assay_type": "in vivo", "details": "female CD-1 mice, intraperitoneal challenge, intravenous 30 min. after infection, 7 day survival", "summary_of_the_method": "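Survival at 7 days, pooled from three independent tests, yields ED50 values. Treatment is intravenous, 30 min after ip infection of female CD-1 mice, using an inoculum lethal to untreated controls within 24-48 hr.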"}}, "data": [{"smiles": "CC(c1ccccc1)C1NC(=O)CNC(=O)C(CO)NC(=O)C(C(O)C2CNC(=N)N2C2OC(CO)C(O)C(O)C2O)NC(=O)C(C(O)C2CNC(=N)N2)NC(=O)C(Cc2ccc(OC3OC(CO)C(OC4OC5COC(C6CCCC6)OC5C(O)C4O)C(O)C3O)cc2)NC1=O", "note": "(stereo not drawn) [Example 117, Cyclo[glycyl-β-methylphenylalanyl-O-[4-O-[4,6-O-(cyclopentylmethylene)hexopyranosyl]-hexopyranosyl]tyrosyl-3-(2-iminoiniidazolidin-4-yl)seryl-3-(3-hexopyranosyl-2-iminoimidazolidin-4-yl)serylseryl]]", "values": [{"measurement": "MIC Enterococcus avium (GC 4558)", "setting": "Enterococcus sp.; Enterococcus avium (GC 4558)", "value": 4, "unit": "µg/mL"}, {"measurement": "MIC Enterococcus faecalis (ATCC 29212)", "setting": "Enterococcus sp.; Enterococcus faecalis (ATCC 29212)", "value": 2, "unit": "µg/mL"}, {"measurement": "MIC Enterococcus faecalis (GC 2242)", "setting": "Enterococcus sp.; Enterococcus faecalis (GC 2242)", "value": 2, "unit": "µg/mL"}, {"measurement": "MIC Enterococcus faecalis (GC 2691)", "setting": "Enterococcus sp.; Enterococcus faecalis (GC 2691)", "value": 4, "unit": "µg/mL"}, {"measurement": "MIC Enterococcus faecalis (GC 3059)", "setting": "Enterococcus sp.; Enterococcus faecalis (GC 3059)", "value": 4, "unit": "µg/mL"}, {"measurement": "MIC Enterococcus faecalis (GC 4552)", "setting": "Enterococcus sp.; Enterococcus faecalis (GC 4552)", "value": 4, "unit": "µg/mL"}, {"measurement": "MIC Enterococcus faecalis (GC 4553)", "setting": "Enterococcus sp.; Enterococcus faecalis (GC 4553)", "value": 4, "unit": "µg/mL"}, {"measurement": "MIC Enterococcus faecalis (GC 4554)", "setting": "Enterococcus sp.; Enterococcus faecalis (GC 4554)", "value": 2, "unit": "µg/mL"}, {"measurement": "MIC Enterococcus faecalis (GC 6189)", "setting": "Enterococcus sp.; Enterococcus faecalis (GC 6189)", "value": 2, "unit": "µg/mL"}, {"measurement": "MIC Enterococcus faecium (GC 2243)", "setting": "Enterococcus sp.; Enterococcus faecium (GC 2243)", "value": 2, "unit": "µg/mL"}, {"measurement": "MIC Enterococcus faecium (GC 4556)", "setting": "Enterococcus sp.; Enterococcus faecium (GC 4556)", "value": 2, "unit": "µg/mL"}, {"measurement": "MIC Enterococcus faecium (GC 4557)", "setting": "Enterococcus sp.; Enterococcus faecium (GC 4557)", "value": 2, "unit": "µg/mL"}, {"measurement": "MIC Enterococcus faecalis (ATCC 29212)", "setting": "Enterococcus sp.; strain ATCC 29212", "value": 2, "unit": "µg/mL"}, {"measurement": "MIC Enterococcus faecalis (GC 2242)", "setting": "Enterococcus sp.; strain GC 2242", "value": 2, "unit": "µg/mL"}, {"measurement": "MIC Enterococcus faecium (GC 2243)", "setting": "Enterococcus sp.; strain GC 2243", "value": 2, "unit": "µg/mL"}, {"measurement": "MIC Enterococcus faecalis (GC 2691)", "setting": "Enterococcus sp.; strain GC 2691", "value": 4, "unit": "µg/mL"}, {"measurement": "MIC Enterococcus faecalis (GC 3059)", "setting": "Enterococcus sp.; strain GC 3059", "value": 4, "unit": "µg/mL"}, {"measurement": "MIC Enterococcus faecalis (GC 4552)", "setting": "Enterococcus sp.; strain GC 4552", "value": 4, "unit": "µg/mL"}, {"measurement": "MIC Enterococcus faecalis (GC 4553)", "setting": "Enterococcus sp.; strain GC 4553", "value": 4, "unit": "µg/mL"}, {"measurement": "MIC Enterococcus faecalis (GC 4554)", "setting": "Enterococcus sp.; strain GC 4554", "value": 2, "unit": "µg/mL"}, {"measurement": "MIC Enterococcus faecium (GC 4556)", "setting": "Enterococcus sp.; strain GC 4556", "value": 2, "unit": "µg/mL"}, {"measurement": "MIC Enterococcus faecium (GC 4557)", "setting": "Enterococcus sp.; strain GC 4557", "value": 2, "unit": "µg/mL"}, {"measurement": "MIC Enterococcus avium (GC 4558)", "setting": "Enterococcus sp.; strain GC 4558", "value": 4, "unit": "µg/mL"}, {"measurement": "MIC Enterococcus faecalis (GC 6189)", "setting": "Enterococcus sp.; strain GC 6189", "value": 2, "unit": "µg/mL"}, {"measurement": "MIC Coagulase Negative Staphylococcus (GC 4547)", "setting": "Staphylococcus sp.", "value": 1, "unit": "µg/mL"}, {"measurement": "MIC Coagulase Negative Staphylococcus (GC 4548)", "setting": "Staphylococcus sp.", "value": 1, "unit": "µg/mL"}, {"measurement": "MIC Coagulase Negative Staphylococcus (GC 4549)", "setting": "Staphylococcus sp.", "value": 1, "unit": "µg/mL"}, {"measurement": "MIC Coagulase Negative Staphylococcus (GC 4551)", "setting": "Staphylococcus sp.", "value": 2, "unit": "µg/mL"}, {"measurement": "MIC Coagulase Negative Staphylococcus (GC 6257)", "setting": "Staphylococcus sp.", "value": 0.5, "unit": "µg/mL"}, {"measurement": "MIC Staphylococcus aureus (ATCC 29213)", "setting": "Staphylococcus sp.", "value": 1, "unit": "µg/mL"}, {"measurement": "MIC Staphylococcus aureus (GC 1131)", "setting": "Staphylococcus sp.", "value": 2, "unit": "µg/mL"}, {"measurement": "MIC Staphylococcus aureus (GC 3051)", "setting": "Staphylococcus sp.", "value": 1, "unit": "µg/mL"}, {"measurement": "MIC Staphylococcus aureus (GC 3053)", "setting": "Staphylococcus sp.", "value": 2, "unit": "µg/mL"}, {"measurement": "MIC Staphylococcus aureus (GC 4541)", "setting": "Staphylococcus sp.", "value": 1, "unit": "µg/mL"}, {"measurement": "MIC Staphylococcus aureus (GC 4542)", "setting": "Staphylococcus sp.", "value": 1, "unit": "µg/mL"}, {"measurement": "MIC Staphylococcus aureus (GC 4544)", "setting": "Staphylococcus sp.", "value": 2, "unit": "µg/mL"}, {"measurement": "MIC Staphylococcus aureus (GC 4545)", "setting": "Staphylococcus sp.", "value": 1, "unit": "µg/mL"}, {"measurement": "MIC Staphylococcus aureus-SMITH (GC 4543)", "setting": "Staphylococcus sp.", "value": 1, "unit": "µg/mL"}, {"measurement": "MIC Staphylococcus haemolyticus (GC 4546)", "setting": "Staphylococcus sp.", "value": 1, "unit": "µg/mL"}, {"measurement": "MIC Staphylococcus aureus (GC 1131)", "setting": "Staphylococcus sp.; inoculum 5×10^5 CFU/mL, strain GC 1131", "value": 2, "unit": "µg/mL"}, {"measurement": "MIC Staphylococcus aureus (ATCC 29213)", "setting": "Staphylococcus sp.; strain ATCC 29213", "value": 1, "unit": "µg/mL"}, {"measurement": "MIC Staphylococcus aureus (GC 3051)", "setting": "Staphylococcus sp.; strain GC 3051", "value": 1, "unit": "µg/mL"}, {"measurement": "MIC Staphylococcus aureus (GC 3053)", "setting": "Staphylococcus sp.; strain GC 3053", "value": 2, "unit": "µg/mL"}, {"measurement": "MIC Staphylococcus aureus (GC 4541)", "setting": "Staphylococcus sp.; strain GC 4541", "value": 1, "unit": "µg/mL"}, {"measurement": "MIC Staphylococcus aureus (GC 4542)", "setting": "Staphylococcus sp.; strain GC 4542", "value": 1, "unit": "µg/mL"}, {"measurement": "MIC Staphylococcus aureus (GC 4544)", "setting": "Staphylococcus sp.; strain GC 4544", "value": 2, "unit": "µg/mL"}, {"measurement": "MIC Staphylococcus aureus (GC 4545)", "setting": "Staphylococcus sp.; strain GC 4545", "value": 1, "unit": "µg/mL"}, {"measurement": "MIC Staphylococcus haemolyticus (GC 4546)", "setting": "Staphylococcus sp.; strain GC 4546", "value": 1, "unit": "µg/mL"}, {"measurement": "MIC Coagulase Negative Staphylococcus (GC 4547)", "setting": "Staphylococcus sp.; strain GC 4547", "value": 1, "unit": "µg/mL"}, {"measurement": "MIC Coagulase Negative Staphylococcus (GC 4548)", "setting": "Staphylococcus sp.; strain GC 4548", "value": 1, "unit": "µg/mL"}, {"measurement": "MIC Coagulase Negative Staphylococcus (GC 4549)", "setting": "Staphylococcus sp.; strain GC 4549", "value": 1, "unit": "µg/mL"}, {"measurement": "MIC Coagulase Negative Staphylococcus (GC 4551)", "setting": "Staphylococcus sp.; strain GC 4551", "value": 2, "unit": "µg/mL"}, {"measurement": "MIC Coagulase Negative Staphylococcus (GC 6257)", "setting": "Staphylococcus sp.; strain GC 6257", "value": 0.5, "unit": "µg/mL"}, {"measurement": "MIC Staphylococcus aureus-SMITH (GC 4543)", "setting": "Staphylococcus sp.; strain SMITH GC 4543", "value": 1, "unit": "µg/mL"}, {"measurement": "MIC Streptococcus agalactiae (GC 4564)", "setting": "Streptococcus sp.; Streptococcus agalactiae (GC 4564)", "value": 0.25, "unit": "µg/mL"}, {"measurement": "MIC Streptococcus pneumoniae (ATCC 6301)", "setting": "Streptococcus sp.; Streptococcus pneumoniae (ATCC 6301)", "value": "<0.06", "unit": "µg/mL"}, {"measurement": "MIC Streptococcus pneumoniae (GC 1894)", "setting": "Streptococcus sp.; Streptococcus pneumoniae (GC 1894)", "value": "<0.06", "unit": "µg/mL"}, {"measurement": "MIC Streptococcus pneumoniae (GC 4565)", "setting": "Streptococcus sp.; Streptococcus pneumoniae (GC 4565)", "value": 0.12, "unit": "µg/mL"}, {"measurement": "MIC Streptococcus pyogenes (GC 4563)", "setting": "Streptococcus sp.; Streptococcus pyogenes (GC 4563)", "value": 0.25, "unit": "µg/mL"}, {"measurement": "MIC Streptococcus pneumoniae (ATCC 6301)", "setting": "Streptococcus sp.; strain ATCC 6301", "value": "<0.06", "unit": "µg/mL"}, {"measurement": "MIC Streptococcus pneumoniae (GC 1894)", "setting": "Streptococcus sp.; strain GC 1894", "value": "<0.06", "unit": "µg/mL"}, {"measurement": "MIC Streptococcus pyogenes (GC 4563)", "setting": "Streptococcus sp.; strain GC 4563", "value": 0.25, "unit": "µg/mL"}, {"measurement": "MIC Streptococcus agalactiae (GC 4564)", "setting": "Streptococcus sp.; strain GC 4564", "value": 0.25, "unit": "µg/mL"}, {"measurement": "MIC Streptococcus pneumoniae (GC 4565)", "setting": "Streptococcus sp.; strain GC 4565", "value": 0.12, "unit": "µg/mL"}, {"measurement": "MIC Escherichia coli (ATCC 25922)", "setting": "Escherichia coli; strain ATCC 25922", "value": 64, "unit": "µg/mL"}, {"measurement": "MIC Escherichia coli (GC 4559)", "setting": "Escherichia coli; strain GC 4559", "value": 32, "unit": "µg/mL"}, {"measurement": "MIC Escherichia coli (GC 4560)", "setting": "Escherichia coli; strain GC 4560", "value": 1, "unit": "µg/mL"}, {"measurement": "median effective dose (ED50), Enterococcus faecalis (GC 6189)", "setting": "[1]", "value": 0.38, "unit": "mg/kg"}]}]}
